Test results published in ChEMBL document CHEMBL5370558, “Modifications of geldanamycin via CuAAC altering affinity to chaperone protein Hsp90 and cytotoxicity” (Eur J Med Chem, 2023).

Columns and labels:
PC-3 = assay: Anticancer activity against human PC-3 cells assessed as cell growth inhibition incubated for 72 hrs by SRB assay; assay type: functional, cell-based; conditions: Homo sapiens, PC-3, 72 h
SK-BR-3 = assay: Anticancer activity against human SK-BR-3 cells assessed as cell growth inhibition incubated for 72 hrs by SRB assay; assay type: functional, cell-based; conditions: Homo sapiens, SK-BR-3, 72 h
SK-OV-3 = assay: Anticancer activity against human SK-OV-3 cells assessed as cell growth inhibition incubated for 72 hrs by SRB assay; assay type: functional, cell-based; conditions: Homo sapiens, SK-OV-3, 72 h
[1] = molecular target: Heat shock protein HSP 90-alpha (Homo sapiens) (UniProt P07900)
Description: Binding affinity to recombinant human HSP90alpha assessed as change in entropy by isothermal titration calorimetry assay

[2] = Cytotoxicity against human HDF cells assessed as cell growth inhibition incubated for 72 hrs by SRB assay; assay type: toxicity, cell-based; conditions: HDF cells (normal human dermal fibroblasts, NHDF)
[3] = Selectivity index, ratio of IC50 for cytotoxicity against human HDF cells to IC50 for anticancer activity against human SK-BR-3 cells; assay type: toxicity, cell-based; conditions: HDF cells versus SK-BR-3 cells, read-out: Ratio IC50
[4] = Selectivity index, ratio of IC50 for cytotoxicity against human HDF cells to IC50 for anticancer activity against human PC-3 cells; assay type: toxicity, cell-based; conditions: HDF cells versus PC-3 cells, read-out: Ratio IC50
[5] = Selectivity index, ratio of IC50 for cytotoxicity against human HDF cells to IC50 for anticancer activity against human SK-OV-3 cells; assay type: cell-based; conditions: HDF cells versus SK-OV-3 cells, read-out: Ratio IC50

## CO[C@H]1/C=C\C=C(/C)C(=O)NC2=CC(=O)C(NCc3cn(Cc4ccc(Cl)cc4)nn3)=C(C[C@@H](C)C[C@H](OC)[C@H](O)[C@@H](C)/C=C(\C)[C@@H]1OC(N)=O)C2=O
PC-3
  IC50: 230 nM
SK-BR-3
  IC50: 240 nM
SK-OV-3
  IC50: 230 nM
[1]
  TdeltaS: -0.86 kcal/mol
[2]
  IC50 at 72 h: 440 nM

## CO[C@H]1/C=C\C=C(/C)C(=O)NC2=CC(=O)C(NCc3cn(CCCOS(=O)(=O)c4ccc(C)cc4)nn3)=C(C[C@@H](C)C[C@H](OC)[C@H](O)[C@@H](C)/C=C(\C)[C@@H]1OC(N)=O)C2=O
PC-3
  IC50: 460 nM
SK-BR-3
  IC50: 440 nM
SK-OV-3
  IC50: 450 nM
[1]
  TdeltaS: 1.41 kcal/mol
[2]
  IC50 at 72 h: 440 nM

## CO[C@H]1/C=C\C=C(/C)C(=O)NC2=CC(=O)C(NCc3cn(C/C=C/c4ccccc4)nn3)=C(C[C@@H](C)C[C@H](OC)[C@H](O)[C@@H](C)/C=C(\C)[C@@H]1OC(N)=O)C2=O
PC-3
  IC50: 1110 nM
SK-BR-3
  IC50: 1160 nM
SK-OV-3
  IC50: 1080 nM
[1]
  TdeltaS: -0.884 kcal/mol
[2]
  IC50 at 72 h: 3380 nM

## COC(=O)C[C@H]1O[C@@H](n2cc(CNC3=C4C[C@@H](C)C[C@H](OC)[C@H](O)[C@@H](C)/C=C(\C)[C@H](OC(N)=O)[C@@H](OC)/C=C\C=C(/C)C(=O)NC(=CC3=O)C4=O)nn2)[C@H](O)[C@@H](O)[C@@H]1O
PC-3
  IC50: 1330 nM
SK-BR-3
  IC50: 1410 nM
SK-OV-3
  IC50: 1470 nM
[3]
  selectivity ratio: 1.55
[4]
  selectivity ratio: 1.65
[2]
  IC50 at 72 h: 2190 nM
[5]
  selectivity ratio: 1.49

## CO[C@H]1/C=C\C=C(/C)C(=O)NC2=CC(=O)C(NCc3cn(CC4OCCO4)nn3)=C(C[C@@H](C)C[C@H](OC)[C@H](O)[C@@H](C)/C=C(\C)[C@@H]1OC(N)=O)C2=O
PC-3
  IC50: 1770 nM
SK-BR-3
  IC50: 1790 nM
SK-OV-3
  IC50: 1730 nM
[3]
  selectivity ratio: 1.71
[4]
  selectivity ratio: 1.73
[2]
  IC50 at 72 h: 3060 nM
[5]
  selectivity ratio: 1.77

## CO[C@H]1/C=C\C=C(/C)C(=O)NC2=CC(=O)C(NCc3cn([C@@H]4O[C@H](CO)[C@H](O)[C@H](O)[C@H]4O)nn3)=C(C[C@@H](C)C[C@H](OC)[C@H](O)[C@@H](C)/C=C(\C)[C@@H]1OC(N)=O)C2=O
PC-3
  IC50: 540 nM
SK-BR-3
  IC50: 570 nM
SK-OV-3
  IC50: 530 nM
[3]
  selectivity ratio: 1.74
[4]
  selectivity ratio: 1.83
[2]
  IC50 at 72 h: 990 nM
[5]
  selectivity ratio: 1.87
